Assay results reported in US20250171438A1 (Agios Pharmaceuticals, Inc., priority 2022, published 2025).

What follows are compounds tested against T1, human PAH with the R408W mutation (Homo sapiens, UniProt P00439, R408W) (assay: Cell Based Phenylalanine Flux Assay). Conditions: A375 cells expressing human R408W PAH; 24 hrs compound incubation; 13C-Tyrosine by LC-MS; average where tested multiple times; read-out: AC50.
T1 construct: expressed in transfected cells
T1 sequence (P00439 1-452 R408W): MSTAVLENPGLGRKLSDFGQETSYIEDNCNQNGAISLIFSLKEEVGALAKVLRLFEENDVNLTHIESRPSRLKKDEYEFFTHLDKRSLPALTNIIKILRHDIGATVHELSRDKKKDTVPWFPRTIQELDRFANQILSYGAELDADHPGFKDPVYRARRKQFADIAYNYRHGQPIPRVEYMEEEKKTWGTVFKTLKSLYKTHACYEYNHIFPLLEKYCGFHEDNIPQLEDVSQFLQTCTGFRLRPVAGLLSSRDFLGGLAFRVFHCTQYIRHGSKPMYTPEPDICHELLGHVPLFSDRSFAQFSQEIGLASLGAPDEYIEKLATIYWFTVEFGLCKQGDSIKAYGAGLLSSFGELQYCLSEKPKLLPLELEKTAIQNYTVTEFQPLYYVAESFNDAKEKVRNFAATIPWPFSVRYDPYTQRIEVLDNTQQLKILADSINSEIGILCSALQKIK
Design: scale not given here
With `O=C(c1nccs1)N1CCc2[nH]cnc2[C@@H]1c1nc2ccccc2s1` [Example 1008, (R)-(4-(benzo[d]thiazol-2-yl)-6,7-dihydro-1H-imidazo[4,5-c]pyridin-5(4H)-yl)(thiazol-2-yl)methanone] the AC50 was > 5 µM.
An AC50 of 0.5 to 1 µM was found for `Cn1ncc(C(=O)N2CCc3[nH]cnc3[C@H]2c2nc3ccccc3s2)c1C(F)F` [Example 1819] in this work.
In the case of `O=C(c1oc(CCC2CC2)nc1C(F)(F)F)N1CCc2[nH]cnc2[C@@H]1c1nc2c(F)cccc2s1` [Example 1626, (R)-(2-(2-cyclopropylethyl)-4-(trifluoromethyl)oxazol-5-yl)(4-(4-fluorobenzo[d]thiazol-2-yl)-6,7-dihydro-1H-imidazo[4,5-c]pyridin-5(4H)-yl)methanone], the AC50 is reported as < 0.5 µM.
For `Cc1ccc(-c2nnc(C(=O)N3CCc4[nH]cnc4[C@H]3c3nc4ccccc4s3)o2)nc1` [Example 1880], the AC50 was < 0.5 µM.
An AC50 of 0.5 to 1 µM was found for `COCc1ccc2c(C(=O)N3CCc4[nH]cnc4[C@H]3c3nc4ccccc4s3)cnn2c1` [Example 1309] in this work.
An AC50 of 1 to 5 µM was found for `O=C(c1cnc(-c2ccccc2)s1)N1CCc2[nH]cnc2[C@@H]1c1nc2ccccc2s1` [Example 1204, (R)-(4-(benzo[d]thiazol-2-yl)-6,7-dihydro-1H-imidazo[4,5-c]pyridin-5(4H)-yl)(2-phenylthiazol-5-yl)methanone] in this work.
An AC50 of 1 to 5 µM was found for `Cc1nc([C@@H](C)O)oc1C(=O)N1CCc2[nH]cnc2[C@@H]1c1nc2c(F)cccc2s1` [Example 1930, ((R)-4-(4-fluorobenzo[d]thiazol-2-yl)-6,7-dihydro-1H-imidazo[4,5-c]pyridin-5(4H)-yl)(2-((R)-1-hydroxyethyl)-4-methyloxazol-5-yl)methanone] in this work.
An AC50 of 1 to 5 µM was found for `Cc1nn(C)cc1-c1ncc(C(=O)N2CCc3[nH]cnc3[C@@H]2c2nc3ccccc3s2)o1` [Example 1382, (R)-(4-(benzo[d]thiazol-2-yl)-6,7-dihydro-1H-imidazo[4,5-c]pyridin-5(4H)-yl)(2-(1,3-dimethyl-1H-pyrazol-4-yl)oxazol-5-yl)methanone] in this work.
In the case of `Cc1cc(F)ccc1-c1nnc(C(=O)N2CCc3[nH]cnc3[C@H]2c2nc3ccccc3s2)o1` [Example 1783], the AC50 is reported as < 0.5 µM.
For `O=C(C1CC1)N1CCc2[nH]cnc2[C@@H]1c1nc2ccc(Br)cc2[nH]1` [Example 951, (R)-(4-(6-bromo-1H-benzo[d]imidazol-2-yl)-6,7-dihydro-1H-imidazo[4,5-c]pyridin-5(4H)-yl)(cyclopropyl)methanone], the AC50 was > 5 µM.
In the case of `O=C(c1cnc(-c2ccccn2)s1)N1CCc2[nH]cnc2[C@H]1c1nc2ccccc2s1` [Example 1205], the AC50 is reported as < 0.5 µM.
`CN1CCN(c2nc(C(F)(F)F)c(C(=O)N3CCc4[nH]cnc4[C@H]3c3nc4ccccc4s3)o2)CC1` [Example 1573] was tested, and the AC50 was < 0.5 µM.

Same assay, conditions: A375 cells expressing human R408W PAH; 24 hrs with compound; 13C-Tyrosine by LC-MS; average where tested multiple times
With `Cc1nc(C(F)(F)F)c(C(=O)N2CCc3nc[nH]c3C2c2nc3ccccc3s2)o1` (stereo not drawn) the AC50 was “E, E”.

Same assay, conditions: A375 cells expressing human R408W PAH; 24 hrs with compound; 13C-Tyrosine by LC-MS; average where tested multiple times; read-out: AC50
An AC50 of 1 to 5 µM was found for `O=C(Cc1ccc(F)cc1)N1CCc2[nH]cnc2[C@H]1c1nc2ccccc2[nH]1` [(S)-1-(4-(1H-benzo[d]imidazol-2-yl)-1,4,6,7-tetrahydro-5H-imidazo[4,5-c]pyridin-5-yl)-2-(4-fluorophenyl)ethan-1-one] in this work.
With `c1ccc2oc(N3CCc4[nH]cnc4C3c3nc4ccccc4s3)nc2c1` (stereo not drawn) the AC50 was > 5 µM.
In the case of `O=C(Cc1nc(C(F)(F)F)cs1)N1CCc2[nH]cnc2C1c1nc2ccc(F)cc2[nH]1` (stereo not drawn), the AC50 is reported as > 5 µM.
An AC50 of 1 to 5 µM was found for `COc1cccc(C(=O)N2CCc3[nH]cnc3[C@H]2c2nc3ccccc3[nH]2)c1` [(S)-(4-(1H-benzo[d]imidazol-2-yl)-1,4,6,7-tetrahydro-5H-imidazo[4,5-c]pyridin-5-yl)(3-methoxyphenyl)methanone] in this work.
For `O=C(C1CC1)N1CCc2[nH]cnc2C1c1nc2ccc(F)cc2s1` (stereo not drawn), the AC50 was > 5 µM.
`CN(C)Cc1cc(C(=O)N2CCc3[nH]cnc3C2c2nc3c(F)cccc3s2)n(C)n1` (stereo not drawn) was tested, and the AC50 was > 5 µM.
With `CC(C)(O)c1nsc(C(=O)N2CCc3[nH]cnc3C2c2nc3c(F)cccc3s2)n1` (stereo not drawn) the AC50 was > 5 µM.
In the case of `O=C(c1cnn2cc(N3CCCC3)ccc12)N1CCc2[nH]cnc2C1c1nc2ccccc2s1` (stereo not drawn), the AC50 is reported as > 5 µM.
